Experimental data published in patent US12180207B2 (ARRAY BIOPHARMA INC., priority 2018, dated 2024).

Columns and labels:
[1] = biological target: recombinant human FGFR3 (amino acids R397-T806) (Homo sapiens (Human), UniProt P22607); assay: FGFR3 enzyme activity assay (LanthaScreen TR-FRET); assay type: biochemical; conditions: 25 μM ATP, 10 min incubation at 22° C., average of multiple determinations if made, read-out: FGFR3 Enz FRET IC50
In short: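 GST-HIS6-tagged human FGFR3 (R397-T806) was reacted with 100 nM Alexa Fluor 647-Poly-GT substrate and 25 μM ATP plus compound in HEPES/MgCl2/Triton buffer, pH 7.5, 2% DMSO, for 10 min at 22 °C.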

[2] = biological target: recombinant human FGFR1 catalytic domain (amino acids 308-731) (Homo sapiens (Human), UniProt P11362); assay: FGFR1 enzyme activity assay (LanthaScreen TR-FRET); assay type: biochemical; conditions: 20 min incubation at 22° C., average of multiple determinations if made, read-out: FGFR1 Enz FRET IC50
In short: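 His-tagged FGFR1 kinase domain with 100 nM Alexa Fluor 647-poly-GT peptide and ATP in pH 7.5 HEPES/MgCl2 buffer with 2% DMSO, 20 min at 22 °C. Quenched with EDTA plus 2 nM Eu-PY20 antibody and read after 60 min. IC50 comes from a 4-parameter fit of percent of control.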

[3] = biological target: FGFR3 (SEQ ID NO: 5, amino acids 449-759) (Homo sapiens (Human), UniProt P22607); assay: LC/MS FGFR3 kobs assay (covalent protein modification); assay type: binding; conditions: 500 nM FGFR3, 3 μM compound
In short: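 The observed rate constant kobs comes from an exponential decay fit of percent unmodified kinase over time. Covalent modification was quantified by Q-TOF LC/MS of formic acid-quenched samples, normalized against DMSO controls.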

[4] = biological target: recombinant human FGFR2 cytoplasmic domain (amino acids 403-822) (Homo sapiens (Human), UniProt P21802); assay: FGFR2 enzyme activity assay (LanthaScreen TR-FRET); assay type: biochemical; conditions: 15 μM ATP, 20 min incubation at 22° C., average of multiple determinations if made, read-out: FGFR2 Enz FRET IC50
In short: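 His-tagged FGFR2 cytoplasmic domain ([…]) with 100 nM Alexa Fluor 647-poly-GT peptide and 15 μM ATP in HEPES/MgCl2/Triton buffer, pH 7.5, 2% DMSO, 20 min at 22 °C. EDTA-quenched, Eu-PY20 antibody added, TR-FRET read after 60 min.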

[5] = biological target: FGFR1 (SEQ ID NO: 1, amino acids 458-765) (Homo sapiens (Human), UniProt P11362); assay: LC/MS FGFR1 kobs assay (covalent protein modification); assay type: binding; conditions: 500 nM FGFR1, 3 μM compound
In short: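 Covalent labeling of FGFR1 kinase domain (aa 458-765) tracked over time by intact-protein LC/MS after formic acid quench. kobs derived by fitting DMSO-normalized percent unmodified FGFR1 to an exponential decay model.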

Chain of recombinant human FGFR1 catalytic domain (amino acids 308-731) (P11362 other isoform, or with tags, fused parts or gaps): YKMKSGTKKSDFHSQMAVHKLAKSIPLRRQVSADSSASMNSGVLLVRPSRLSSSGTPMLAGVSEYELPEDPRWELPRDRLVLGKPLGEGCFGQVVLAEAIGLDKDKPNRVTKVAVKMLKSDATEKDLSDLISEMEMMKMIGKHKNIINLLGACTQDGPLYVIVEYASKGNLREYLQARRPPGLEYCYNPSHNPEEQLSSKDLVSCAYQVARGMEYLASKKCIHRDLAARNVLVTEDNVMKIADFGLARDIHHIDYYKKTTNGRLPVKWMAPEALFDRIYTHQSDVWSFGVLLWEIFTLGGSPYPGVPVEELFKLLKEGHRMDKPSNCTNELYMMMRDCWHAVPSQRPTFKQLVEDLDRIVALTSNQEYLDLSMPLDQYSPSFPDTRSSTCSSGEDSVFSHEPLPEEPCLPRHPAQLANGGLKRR
Chain of FGFR1 (SEQ ID NO: 1, amino acids 458-765) (P11362 458-765): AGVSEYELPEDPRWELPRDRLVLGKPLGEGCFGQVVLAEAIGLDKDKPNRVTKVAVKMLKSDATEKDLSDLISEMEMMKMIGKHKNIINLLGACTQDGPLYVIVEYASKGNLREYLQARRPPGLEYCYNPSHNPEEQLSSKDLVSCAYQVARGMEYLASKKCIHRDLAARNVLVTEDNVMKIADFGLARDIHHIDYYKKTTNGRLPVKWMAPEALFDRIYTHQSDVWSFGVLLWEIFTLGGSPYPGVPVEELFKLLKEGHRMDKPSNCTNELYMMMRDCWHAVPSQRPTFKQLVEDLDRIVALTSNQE
Chain of FGFR3 (SEQ ID NO: 5, amino acids 449-759) (P22607 449-759): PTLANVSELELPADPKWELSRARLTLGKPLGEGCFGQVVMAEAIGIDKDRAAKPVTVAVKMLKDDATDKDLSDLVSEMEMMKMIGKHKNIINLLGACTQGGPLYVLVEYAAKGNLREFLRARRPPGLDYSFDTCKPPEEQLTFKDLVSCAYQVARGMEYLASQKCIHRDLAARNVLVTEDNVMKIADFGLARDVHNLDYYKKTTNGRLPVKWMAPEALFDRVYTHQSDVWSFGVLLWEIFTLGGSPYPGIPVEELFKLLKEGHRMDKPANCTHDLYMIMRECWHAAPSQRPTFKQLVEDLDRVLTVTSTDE
Chain of recombinant human FGFR3 (amino acids R397-T806) (P22607 397-806): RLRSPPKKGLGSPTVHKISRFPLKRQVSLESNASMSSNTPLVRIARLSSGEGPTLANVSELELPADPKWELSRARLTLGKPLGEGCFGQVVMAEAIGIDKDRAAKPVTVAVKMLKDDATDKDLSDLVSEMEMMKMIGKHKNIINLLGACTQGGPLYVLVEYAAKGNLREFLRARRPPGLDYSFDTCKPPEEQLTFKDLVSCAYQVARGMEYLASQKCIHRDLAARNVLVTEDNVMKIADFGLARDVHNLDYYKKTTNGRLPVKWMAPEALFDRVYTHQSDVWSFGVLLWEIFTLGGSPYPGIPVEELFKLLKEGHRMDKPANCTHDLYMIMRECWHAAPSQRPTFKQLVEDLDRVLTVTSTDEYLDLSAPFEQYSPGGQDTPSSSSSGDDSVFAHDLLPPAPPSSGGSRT
Chain of recombinant human FGFR2 cytoplasmic domain (amino acids 403-822) (P21802 402-821): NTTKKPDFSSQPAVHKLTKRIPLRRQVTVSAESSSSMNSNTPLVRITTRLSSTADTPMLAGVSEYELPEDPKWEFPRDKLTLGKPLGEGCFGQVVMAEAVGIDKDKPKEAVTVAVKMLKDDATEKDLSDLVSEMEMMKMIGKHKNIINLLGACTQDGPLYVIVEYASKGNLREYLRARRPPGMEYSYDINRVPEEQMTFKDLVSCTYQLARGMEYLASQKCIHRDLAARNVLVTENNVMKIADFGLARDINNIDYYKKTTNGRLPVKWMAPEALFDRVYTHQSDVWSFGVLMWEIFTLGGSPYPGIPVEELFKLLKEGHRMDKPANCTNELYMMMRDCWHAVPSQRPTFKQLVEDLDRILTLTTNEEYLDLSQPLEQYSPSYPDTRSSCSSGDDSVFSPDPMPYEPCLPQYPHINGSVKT

| IC50 [1] [nM] | IC50 [2] [nM] | FGFR3 Enz kobs [3] [min⁻¹] | IC50 [4] [nM] | FGFR1 Enz kobs [5] [min⁻¹] | Structure (SMILES) |
| --- | --- | --- | --- | --- | --- |
| 2 | 6 | 0.0041 | 3 | 0.0005 | C=CC(=O)N1CC(C(=O)N2CCC(n3cc(-c4cc(OC)c5c(C#N)cnn5c4)cn3)CC2)C1(C)C (stereo not drawn) [Example 43, 6-(1-(1-(1-acryloyl-2,2-dimethylazetidine-3-carbonyl)piperidin-4-yl)-1H-pyrazol-4-yl)-4-methoxypyrazolo[1,5-a]pyridine-3-carbonitrile] |
| 31 | 63 | 0.00708 | 23 | 0.0025 | C=CC(=O)Nc1cccc(C(=O)N2CCC[C@@H](n3cc(-c4cc(OC)c5c(C#N)cnn5c4)cn3)C2)c1 [Example 24, (R)-N-(3-(3-(4-(3-cyano-4-methoxypyrazolo[1,5-a]pyridin-6-yl)-1H-pyrazol-1-yl)piperidine-1-carbonyl)phenyl)acrylamide] |
| 8 | 11 | 0.01958 | 4 | 0.00324 | C=CC(=O)Nc1ccc(C(=O)N2CCC(n3cc(-c4cc(OC)c5c(C#N)cnn5c4)cn3)CC2)cc1 [Example 177, N-(4-(4-(4-(3-cyano-4-methoxypyrazolo[1,5-a]pyridin-6-yl)-1H-pyrazol-1-yl)piperidine-1-carbonyl)phenyl)acrylamide] |
| 32 | 240 | 0.00502 | 18 | 0.00052 | C=CC(=O)N1CC(C(=O)N2CCC(n3ncc(-c4cc(OC)c5c(C#N)cnn5c4)c3C)CC2)C1(C)C (stereo not drawn) [Example 87, 6-(1-(1-(1-acryloyl-2,2-dimethylazetidine-3-carbonyl)piperidin-4-yl)-5-methyl-1H-pyrazol-4-yl)-4-methoxypyrazolo[1,5-a]pyridine-3-carbonitrile] |
| 2 | 2 | 0.02709 | 1 | 0.00254 | C=CC(=O)N1CC(OC)(C(=O)N2CCC(n3cc(-c4cc(OC)c5c(C#N)cnn5c4)cn3)CC2)C1 [Example 41, 6-(1-(1-(1-acryloyl-3-methoxyazetidine-3-carbonyl)piperidin-4-yl)-1H-pyrazol-4-yl)-4-methoxypyrazolo[1,5-a]pyridine-3-carbonitrile] |
| 12 | 53 | 0.00672 | 18 | 0.00103 | C=CC(=O)Nc1ccccc1C(=O)N1CCC[C@@H](n2cc(-c3cc(OC)c4c(C#N)cnn4c3)cn2)C1 [Example 25, (R)-N-(2-(3-(4-(3-cyano-4-methoxypyrazolo[1,5-a]pyridin-6-yl)-1H-pyrazol-1-yl)piperidine-1-carbonyl)phenyl)acrylamide] |
| 11 | 24 | 0.00297 | 8 | 0.00075 | C=CC(=O)N1CC[C@@H](C(=O)N2CCC(n3cc(-c4cc(OC)c5c(C#N)cnn5c4)cn3)CC2)C1 [Example 29, (R)-6-(1-(1-(1-acryloylpyrrolidine-3-carbonyl)piperidin-4-yl)-1H-pyrazol-4-yl)-4-methoxypyrazolo[1,5-a]pyridine-3-carbonitrile] |
| 19 | 197 | 0.04322 | 99 | 0.00431 | C=CC(=O)N1CC(CN2CCC(n3ncc(-c4cc(OC)c5c(C#N)cnn5c4)c3C)CC2)(OC)C1 [Example 91, 6-(1-(1-((1-acryloyl-3-methoxyazetidin-3-yl)methyl)piperidin-4-yl)-5-methyl-1H-pyrazol-4-yl)-4-methoxypyrazolo[1,5-a]pyridine-3-carbonitrile] |
| 39 | 285 | 0.00836 | 131 | 0.00191 | C=CC(=O)N1CC(CN2CC(n3ncc(-c4cc(OC)c5c(C#N)cnn5c4)c3C)C2)C1 [Example 92] |
| 15 | 108 | 0.02499 | 50 | 0.00364 | C=CC(=O)N1CC(CN2CCC(n3ncc(-c4cc(OC)c5c(C#N)cnn5c4)c3C)CC2)C1 [Example 89, 6-(1-(1-((1-acryloylazetidin-3-yl)methyl)piperidin-4-yl)-5-methyl-1H-pyrazol-4-yl)-4-methoxypyrazolo[1,5-a]pyridine-3-carbonitrile] |
| 2 | 9 | 0.01133 | 3 | 0.00138 | C=CC(=O)N1CC(CC)(C(=O)N2CCC(n3cc(-c4cc(OC)c5c(C#N)cnn5c4)cn3)CC2)C1 [Example 40, 6-(1-(1-(1-acryloyl-3-ethylazetidine-3-carbonyl)piperidin-4-yl)-1H-pyrazol-4-yl)-4-methoxypyrazolo[1,5-a]pyridine-3-carbonitrile] |
| 6 | 16 | 0.0114 | 4 | 0.00278 | C=CC(=O)Nc1ccc(C(=O)N2CC[C@H](n3cc(-c4cc(OC)c5c(C#N)cnn5c4)cn3)C2)cc1C [Example 70, (S)-N-(4-(3-(4-(3-cyano-4-methoxypyrazolo[1,5-a]pyridin-6-yl)-1H-pyrazol-1-yl)pyrrolidine-1-carbonyl)-2-methylphenyl)acrylamide] |
| 3 | 10 | 0.00661 | 3 | 0.00085 | C=CC(=O)N1CC2(CCC(C(=O)N3CCC(n4cc(-c5cc(OC)c6c(C#N)cnn6c5)cn4)CC3)CC2)C1 [Example 21, 6-(1-(1-(2-acryloyl-2-azaspiro[3.5]nonane-7-carbonyl)piperidin-4-yl)-1H-pyrazol-4-yl)-4-methoxypyrazolo[1,5-a]pyridine-3-carbonitrile] |
| 7 | 16 | 0.0223 | 5 | 0.00332 | C=CC(=O)Nc1ccc(C(=O)N2CC[C@H](n3cc(-c4cc(OC)c5c(C#N)cnn5c4)cn3)C2)cc1 [Example 66, (S)-N-(4-(3-(4-(3-cyano-4-methoxypyrazolo[1,5-a]pyridin-6-yl)-1H-pyrazol-1-yl)pyrrolidine-1-carbonyl)phenyl)acrylamide] |
| 8 | 73 | 0.01518 | 22 | 0.00145 | C=CC(=O)N1CC(C(=O)N2CCC(n3cc(-c4cc(OC)c5c(C#N)cnn5c4)c(C)n3)CC2)C1 [Example 94, 6-(1-(1-(1-acryloylazetidine-3-carbonyl)piperidin-4-yl)-3-methyl-1H-pyrazol-4-yl)-4-methoxypyrazolo[1,5-a]pyridine-3-carbonitrile] |
| 2 | 7 | 0.01716 | 2 | 0.00168 | C=CC(=O)N1CCC(C(=O)N2CCC(n3cc(-c4cc(OC)c5c(C#N)cnn5c4)cn3)CC2)C(F)(F)C1 (stereo not drawn) [Example 15, 6-(1-(1-(1-acryloyl-3,3-difluoropiperidine-4-carbonyl)piperidin-4-yl)-1H-pyrazol-4-yl)-4-methoxypyrazolo[1,5-a]pyridine-3-carbonitrile] |

| Structure (SMILES) | IC50 [1] [nM] | IC50 [2] [nM] | FGFR3 Enz kobs [3] [min⁻¹] | IC50 [4] [nM] | FGFR1 Enz kobs [5] [min⁻¹] |
| --- | --- | --- | --- | --- | --- |
| C=CC(=O)N1C2CC1CN(C(=O)N1CCC(n3cc(-c4cc(OC)c5c(C#N)cnn5c4)cn3)CC1)C2 [Example 1, 6-(1-(1-(6-acryloyl-3,6-diazabicyclo[3.1.1]heptane-3-carbonyl)piperidin-4-yl)-1H-pyrazol-4-yl)-4-methoxypyrazolo[1,5-a]pyridine-3-carbonitrile] | 5 | 5 | 0.01496 | 15 | 0.00122 |
| C=CC(=O)N1CC(C(=O)N2C3CCC2CN(c2ccc(-c4cc(OC)c5c(C#N)cnn5c4)cn2)C3)C1 [Example 50, 6-(6-(8-(1-acryloylazetidine-3-carbonyl)-3,8-diazabicyclo[3.2.1]octan-3-yl)pyridin-3-yl)-4-methoxypyrazolo[1,5-a]pyridine-3-carbonitrile] | 10 | 24 | 0.04375 | 4 | 0.00381 |
